Measured values reported in patent publication EP0947200B1, “Compositions comprising Cetrorelix acetate for the treatment of female infertility and gonadal protection” (Zentaris IVF GmbH, priority 1993, dated 2015).

Key:
[1] = Solubility and hydrolytic stability in acetic acid; type: physicochemical
Excerpt: Überraschenderweise stellte sich nun heraus, daß man Cetrorelix in 30 %iger VolumenNolumen Essigsäure gut lösen kann. Diese Lösung wird anschließend auf eine Endkonzentration von 3 % Cetrorelix mit Wasser für Injektionszwecke aufgefüllt und Mannit hinzugegeben. […] Lösungen, die nach dieser Methode hergestellt werden, […]

[2] = type: physicochemical
Experimental: Gemäß vorliegender Anmeldung soll der Wirkstoff subcutan in einer Dosis von 0,1 bis 20 mg appliziert werden können. Die wässrigen Lösungen des Dekapeptids sind instabil, eine Autoklavierung im Endbehälter ist nicht möglich. […] Um eine injizierbare Lösung zu erhalten, war daher die Entwicklung eines Lyophilisats erforderlich. Allerdings ist die Menge des Wirkstoffes in der zu lyophilisierenden Lösung so gering, dass bei niedrigen Wirkstoffkonzentrationen nur ein lockerer Flaum an der Glaswand der Ampulle nach der Trocknung der hilfsstofffreien Lösung resultiert, der mit dem zur Sterilisierung benutzten Wasserdampfstrom aus dem Vial ausgetragen wird. Es ist also erforderlich, einen Gerüstbildner einzusetzen, der einen stabilen Kuchen bildet. Bei hohen Konzentrationen kann auf diesen Hilfsstoff verzichtet werden. Als Gerüstbildner kommen folgende Hilfsstoffe infrage: Hexite, insbesondere Mannit, Glucit, Sorbit, wie D-Sorbit, Dulcit, Allit, Altrit (zum Beispiel D- und L-Altrit), Idit (zum Beispiel D- und L-Idit), deren optisch aktive Formen (D- beziehungsweise L-Formen) sowie die entsprechenden Racemate. Insbesondere wird Mannit, wie D-Mannit, L-Mannit, DL-Mannit, Sorbit und/oder Dulcit verwendet, und zwar hiervon vorzugsweise D-Mannit. Als Hexit können auch Mischungen der genannten Hexite verwendet werden, zum Beispiel Mischungen von Mannit und Sorbit und/oder Dulcit. […]

[3] = tested on: endogene Hormonproduktion (LH-FSH, Estradiol); type: in vivo, Patientinnen
Excerpt: Es hat sich nun herausgestellt, daß der Antagonist Cetrorelix gerade bei dieser Behandlung folgende Vorteile aufweist:
Um eine totale Suppression zu erreichen, genügen bei der Behandlung mit Cetrorelix eine Behandlungsdauer von 5 Tagen. […] Darüber hinaus läßt sich in der 2. Therapiephase, der Ovulationsauslösephase, HMG einsparen. Dies stellt einen nicht unbeträchtlichen Kostenvorteil dieser in-vitro-Fertilisationsbehandlung dar. Die in-vitro-Fertilisation wird beispielsweise beim Vorliegen einer Tubenanomalie eingesetzt. Für diese Therapie ist es notwendig, den Zyklus genau zu kontrollieren und den Zeitpunkt der Ovulation möglichst genau festzulegen. Bisher wurde dies nur eingeschränkt erreicht, da durch Stimulation mit HMG/HCG der präovulatorische LH-Anstieg oft zu früh auftrat oder nicht lange genug aufrechterhalten wurde. Es ist jedoch von entscheidender Bedeutung für den Behandlungserfolg, diesen verfrühten Anstieg zu verhindern, um den Befruchtungszeitpunkt genau festlegen zu können. Dadurch wird die körperliche und psychische Belastung der Patientinnen reduziert und die Kliniklogistik optimal eingesetzt. […]

Substance: Cetrorelix
- Hydrolyse der endständigen Amidgruppe ([1]; acid medium (acetic acid solution)): nicht festgestellt
- Löslichkeit ([1]; in 30 % (volume/volume) acetic acid): gut lösen
- Stabilität der wässrigen Lösungen [2]: instabil
- Verhalten unter arzneibuchüblicher Sterilisation ([2]; pharmacopoeial sterilisation (autoclaving in final container)): neigt unter arzneibuchüblicher Sterilisation zur Zersetzung
- Behandlungsdauer, um eine totale Suppression zu erreichen ([3]; female patients, treatment of infertility): 5 Tagen
- Hyperstimulationssyndrom ([3]; in vivo): kann nicht auftreten
